What all share (type): in vivo, rat
For assay [1], the system named is Dahl rats (salt-sensitive hypertensive rats). Nature of the assay: Combined administration of MR antagonist and calcium antagonist: inhibitory action on blood pressure elevation (Example 2). Particulars: male Dahl rats, 8% salt diet, oral for 6 weeks, trough on day 41; compound (Ia) 0.1 mg/kg, amlodipine 1 mg/kg, alone or combined; mean±standard error.
Assay [2] has the same test system. Kind of assay: Combined administration of MR antagonist and diuretic: inhibitory action on blood pressure elevation (Example 3). The note with it: male Dahl rats, 8% salt diet, oral for 6 weeks, trough on day 40; compound (Ia) 0.3 mg/kg, hydrochlorothiazide 1 mg/kg, alone or combined; mean±standard error. As for the experimental part: (§1) Male Dahl rats (DIS/Eis [Dahl-Iwai S], SPF grade, supplier: Japan SLC, Inc., salt-sensitive hypertensive rats) at 7 weeks of age were divided into groups (6 or 9 rats per group).
(§2) In a normal group and a control group, 0.5% methyl cellulose solution was orally administered for 6 weeks, and in the other groups, a test substance was orally administered for 6 weeks. The test substance was suspended in 0.5% methyl cellulose solution and administered at a volume of 2 mL/kg. Additionally, in the groups other than the normal group, an 8% salt diet (FR-2 containing 8% NaCl, manufactured by Funabashi Farm Co., Ltd.) was given ad libitum from the start of administration of the test substance. The composition of the groups, the administered test substances [in the parentheses], and the number of rats (n) per group are as follows. […]
(§3) Systolic blood pressure was measured by using a noninvasive sphygmomanometer for rats and mice (BP-98A, Softron Co., Ltd.) during the trough period at the 6th week of administration of the test substance (on day 40 from the start of administration of the test substance). In addition, on day 41 from the start of administration of the test substance, urine collection for 24-hour was performed using a metabolic cage (2100-R, Watanabe Isolator Systems Co., Ltd.), and the daily urinary protein excretion per body weight was calculated.

The test system is the same in assay [3]. Kind of assay: Combined administration of MR antagonist and angiotensin II receptor antagonist: inhibitory action on blood pressure elevation (Example 1). Particulars: male Dahl rats, 8% salt diet, oral for 6 weeks, trough on day 42; compound (Ia) 1.0 mg/kg, olmesartan medoxomil 10 mg/kg, alone or combined; mean±standard error. As for the experimental part:
Male Dahl rats (DIS/Eis [Dahl-Iwai S], SPF grade, supplier: Japan SLC, Inc., salt-sensitive hypertensive rats) at 7 weeks of age were divided into groups (6 rats per group).
In a normal group and a control group, 0.5% methyl cellulose solution was orally administered for 6 weeks, and in the other groups, a test substance was orally administered for 6 weeks. The test substance was suspended in 0.5% methyl cellulose solution and administered at a volume of 2 mL/kg. Additionally, in the groups other than the normal group, an 8% salt diet (FR-2 containing 8% NaCl, manufactured by Funabashi Farm Co., Ltd.) was given ad libitum from the start of administration of the test substance. The composition of the groups and the administered test substances [in parentheses] are as follows.
Group 3: compound (Ia) administration group [compound (Ia) (1.0 mg/kg)]
Group 4: olmesartan medoxomil administration group [olmesartan medoxomil (10 mg/kg)]
Group 5: combined administration group [compound (Ia) (1.0 mg/kg)+olmesartan medoxomil (10 mg/kg)]
The results obtained by measuring systolic blood pressure using a noninvasive sphygmomanometer for rats and mice (BP-98A, Softron Co., Ltd.) during the trough period at the 6th week of administration of the test substance (on day 42 from the start of administration of the test substance) are shown in Table 1 (the values in the table represent mean±standard error).

Assay [4] has the same test system. Kind of assay: Combined administration of MR antagonist and diuretic: inhibitory action on proteinuria (Example 3). Particulars: male Dahl rats, 8% salt diet, oral for 6 weeks, 24-hour urine collection on day 41; compound (Ia) 0.3 mg/kg, hydrochlorothiazide 1 mg/kg, alone or combined; mean±standard error. As for the experimental part:
as §1, §2, §3

SMILES strings stand for the structures.

Consider `Cc1c(C(=O)Nc2ccc(S(C)(=O)=O)cc2)cn(CCO)c1-c1ccccc1C(F)(F)F` (atropisomer, axis not shown) [compound (Ia), (S)-1-(2-hydroxyethyl)-4-methyl-N-[4-(methylsulfonyl)phenyl]-5-[2-(trifluoromethyl)phenyl]-1H-pyrrole-3-carboxamide], for which the Systolic blood pressure in assay [1] is 207 ± 7 mmHg; in assay [2], 196 ± 7 mmHg; in assay [3], 170 ± 4 mmHg. The “Daily urinary protein excretion” value in assay [4] was determined as 190 ± 16 mg/kg/day.
For `NS(=O)(=O)c1cc2c(cc1Cl)NCNS2(=O)=O` [hydrochlorothiazide, 6-chloro-3,4-dihydro-2H-1,2,4-benzothiadiazine-7-sulfonamide 1,1-dioxide, reference compound], the Systolic blood pressure in assay [2] is 212 ± 3 mmHg. The “Daily urinary protein excretion” value in assay [4] is reported as 320 ± 65 mg/kg/day.

For the origin of these results see patent US10111858B2, “Pharmaceutical for prophylaxis or treatment of hypertension” (Daiichi Sankyo Company, Limited, priority 2013, dated 2018).
